According to ChEMBL document CHEMBL1201862, “PubChem BioAssay data set” (2004):
One block for each compound: values may come before it. Active and inactive are the calls of the source. For most assays here, no stated cut-off is given here; in the data, actives have a measured EC50 and inactives only a lower limit.

Experiments:
[1] = molecular target: T1, Heat shock factor protein 1 (Mus musculus, UniProt P38532); test: decrease of HSF1-responsive luciferase luminescence – cell-based, NIH3T3, dose retest, confirmation (AID 2382); format: functional;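 further: NIH3T3 fibroblasts with HSF1-driven luciferase reporter stressed by proteasome inhibitor MG132; luminescence from HSF1-driven luciferase expression after 8 hours of MG132 stress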
T1 sequence (P38532 whole entry): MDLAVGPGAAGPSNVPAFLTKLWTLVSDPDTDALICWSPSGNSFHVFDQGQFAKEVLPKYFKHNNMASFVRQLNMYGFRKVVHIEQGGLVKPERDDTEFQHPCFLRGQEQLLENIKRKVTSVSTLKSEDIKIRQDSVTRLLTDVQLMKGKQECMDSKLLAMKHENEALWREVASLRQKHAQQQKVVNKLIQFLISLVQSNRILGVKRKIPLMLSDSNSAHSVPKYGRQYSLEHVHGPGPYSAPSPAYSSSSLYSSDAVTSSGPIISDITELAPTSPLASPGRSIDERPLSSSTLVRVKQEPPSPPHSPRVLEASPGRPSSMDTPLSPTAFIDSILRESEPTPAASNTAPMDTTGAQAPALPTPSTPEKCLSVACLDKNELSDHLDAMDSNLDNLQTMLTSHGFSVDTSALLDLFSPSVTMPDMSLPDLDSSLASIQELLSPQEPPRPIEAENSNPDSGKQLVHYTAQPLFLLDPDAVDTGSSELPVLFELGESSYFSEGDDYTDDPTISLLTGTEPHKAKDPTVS

[2] = molecular target: T2, RNA-binding protein pos-1 (Caenorhabditis elegans, UniProt G5EF15); test: disruptors of C. elegans POS-1 RNA interaction – biochemical, fluorescence polarization, dose response (AID 1964);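 further: purified POS-1 fused to maltose binding protein made in E. coli; potency of compounds blocking POS-1 binding to fluorescent RNA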
T2 sequence (G5EF15 whole entry): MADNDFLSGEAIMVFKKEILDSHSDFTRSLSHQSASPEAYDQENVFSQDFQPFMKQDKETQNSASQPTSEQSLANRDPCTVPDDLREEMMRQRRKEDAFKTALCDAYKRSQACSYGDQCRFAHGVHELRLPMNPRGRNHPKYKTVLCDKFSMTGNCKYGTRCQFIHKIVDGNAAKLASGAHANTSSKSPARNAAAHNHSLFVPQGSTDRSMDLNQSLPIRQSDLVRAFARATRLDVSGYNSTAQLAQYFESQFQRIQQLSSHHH

Fatty acid synthase [3] = molecular target: T3, Fatty acid synthase (Homo sapiens, UniProt P49327); test: inhibition of human FAS-TE enzyme activity – biochemical, endpoint fluorescence intensity, uHTS hits, dose response (AID 624327); format: functional;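 further: fluorescence from hydrolysis of an O-methyl fluorescein acyl ester substrate by the enzyme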
Fatty acid synthase [4] = molecular target: T3, Fatty acid synthase; test: inhibition of human FAS-TE enzyme activity – biochemical, kinetic fluorescence intensity, dose response (AID 624326); format: functional;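 further: rate of fluorescence rise from hydrolysis of a fluorogenic O-methyl fluorescein ester substrate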
BJ [5] = test: BJ-TERT-LT-ST fibroblast viability loss – cell-based, RAS-independent, luminescence, dose response (AID 1935); format: functional; details: Homo sapiens;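 further: BJ fibroblasts immortalized with TERT plus LT and ST oncogenes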
[6] = molecular target: Luciferin 4-monooxygenase (Photinus pyralis, UniProt P08659); test: inhibition of purified Photinus pyralis luciferase – biochemical, luminescence, dose response (AID 1891)
[7] = Luminescence Cell-Based Dose Confirmation HTS to Identify Inhibitors of Platelet Dense Granule Release. [Related pubchem assays: 1663 (Primary HTS), 1678 (Summary of Project)]; format: functional
BJ [8] = test: cells; format: functional, cell-based; details: Homo sapiens
[9] = DRD fibroblast viability loss – cell-based, non-viral oncogenic, luminescence, dose response (AID 1934); format: functional; details: Homo sapiens
BJ [10] = test: BJ-TERT fibroblast viability loss – cell-based, RAS-independent, luminescence, dose response (AID 1933); format: functional; details: Homo sapiens
[11] = molecular target: T4, Histone-lysine N-methyltransferase NSD2 (Homo sapiens, UniProt O96028); format: biochemical
T4 sequence (O96028 whole entry): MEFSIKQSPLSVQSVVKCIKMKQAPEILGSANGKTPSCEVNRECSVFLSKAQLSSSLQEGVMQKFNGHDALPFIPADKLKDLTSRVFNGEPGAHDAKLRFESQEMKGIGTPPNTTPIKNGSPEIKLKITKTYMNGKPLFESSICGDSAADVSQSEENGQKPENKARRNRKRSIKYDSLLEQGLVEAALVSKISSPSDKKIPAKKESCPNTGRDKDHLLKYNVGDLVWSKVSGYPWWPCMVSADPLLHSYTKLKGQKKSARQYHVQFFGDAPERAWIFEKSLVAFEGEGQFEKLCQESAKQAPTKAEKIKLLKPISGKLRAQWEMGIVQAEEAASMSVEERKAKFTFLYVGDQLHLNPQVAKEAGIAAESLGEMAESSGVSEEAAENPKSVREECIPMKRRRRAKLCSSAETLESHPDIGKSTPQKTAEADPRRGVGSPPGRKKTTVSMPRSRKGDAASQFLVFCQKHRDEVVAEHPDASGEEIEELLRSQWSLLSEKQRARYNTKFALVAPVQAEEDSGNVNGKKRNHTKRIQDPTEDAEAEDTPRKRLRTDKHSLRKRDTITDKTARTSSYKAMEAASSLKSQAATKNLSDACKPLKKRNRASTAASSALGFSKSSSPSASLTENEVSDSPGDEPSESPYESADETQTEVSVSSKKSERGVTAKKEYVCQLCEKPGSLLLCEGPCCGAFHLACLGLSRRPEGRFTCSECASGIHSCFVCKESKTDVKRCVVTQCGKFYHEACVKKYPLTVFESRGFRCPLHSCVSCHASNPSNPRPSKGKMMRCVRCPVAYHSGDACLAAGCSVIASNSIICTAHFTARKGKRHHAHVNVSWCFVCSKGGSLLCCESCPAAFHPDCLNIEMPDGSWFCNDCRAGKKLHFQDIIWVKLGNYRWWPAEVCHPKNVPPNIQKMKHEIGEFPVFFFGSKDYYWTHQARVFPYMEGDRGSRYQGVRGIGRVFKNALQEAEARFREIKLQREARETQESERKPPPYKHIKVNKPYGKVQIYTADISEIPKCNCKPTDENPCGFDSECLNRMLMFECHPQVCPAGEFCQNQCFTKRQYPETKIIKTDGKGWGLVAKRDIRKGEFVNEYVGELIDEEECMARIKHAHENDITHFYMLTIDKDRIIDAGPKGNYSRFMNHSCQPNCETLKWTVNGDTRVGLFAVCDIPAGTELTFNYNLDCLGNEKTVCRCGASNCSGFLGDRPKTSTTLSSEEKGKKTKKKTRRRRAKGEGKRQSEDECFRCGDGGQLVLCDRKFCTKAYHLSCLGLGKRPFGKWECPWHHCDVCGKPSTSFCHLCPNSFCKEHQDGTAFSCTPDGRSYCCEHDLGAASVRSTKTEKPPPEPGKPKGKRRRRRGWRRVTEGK

cells [12] = format: functional, cell-based
cells [13] = format: functional, cell-based; remark: listed apart in the source
[14] = molecular target: T5, Zinc finger protein mex-5 (Caenorhabditis elegans, UniProt Q9XUB2); test: potency of MEX-5 RNA-binding blockers – biochemical, C. elegans, fluorescence polarization, dose response (AID 1960)
T5 sequence (Q9XUB2 whole entry): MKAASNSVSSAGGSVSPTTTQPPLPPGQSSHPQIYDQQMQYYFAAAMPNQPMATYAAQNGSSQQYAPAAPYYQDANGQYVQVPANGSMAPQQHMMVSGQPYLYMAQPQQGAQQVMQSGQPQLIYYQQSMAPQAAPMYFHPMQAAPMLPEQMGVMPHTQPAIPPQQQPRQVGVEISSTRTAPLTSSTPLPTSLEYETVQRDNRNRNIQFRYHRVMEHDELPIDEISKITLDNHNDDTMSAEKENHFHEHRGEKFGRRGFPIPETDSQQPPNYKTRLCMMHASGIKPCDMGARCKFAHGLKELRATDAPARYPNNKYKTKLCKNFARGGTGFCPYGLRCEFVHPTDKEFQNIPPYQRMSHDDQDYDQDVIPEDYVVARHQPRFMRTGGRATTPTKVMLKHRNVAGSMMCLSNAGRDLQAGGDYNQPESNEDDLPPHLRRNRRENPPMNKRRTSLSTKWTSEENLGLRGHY

[15] = molecular target: T6, Rac GTPase-activating protein 1 (Homo sapiens, UniProt Q9H0H5); test: blockers of MgcRacGAP-driven Rac1 GTP hydrolysis – biochemical, ADP Hunter fluorescence, primary and confirmatory, confirmation (AID 624330); format: functional
T6 sequence (Q9H0H5 whole entry): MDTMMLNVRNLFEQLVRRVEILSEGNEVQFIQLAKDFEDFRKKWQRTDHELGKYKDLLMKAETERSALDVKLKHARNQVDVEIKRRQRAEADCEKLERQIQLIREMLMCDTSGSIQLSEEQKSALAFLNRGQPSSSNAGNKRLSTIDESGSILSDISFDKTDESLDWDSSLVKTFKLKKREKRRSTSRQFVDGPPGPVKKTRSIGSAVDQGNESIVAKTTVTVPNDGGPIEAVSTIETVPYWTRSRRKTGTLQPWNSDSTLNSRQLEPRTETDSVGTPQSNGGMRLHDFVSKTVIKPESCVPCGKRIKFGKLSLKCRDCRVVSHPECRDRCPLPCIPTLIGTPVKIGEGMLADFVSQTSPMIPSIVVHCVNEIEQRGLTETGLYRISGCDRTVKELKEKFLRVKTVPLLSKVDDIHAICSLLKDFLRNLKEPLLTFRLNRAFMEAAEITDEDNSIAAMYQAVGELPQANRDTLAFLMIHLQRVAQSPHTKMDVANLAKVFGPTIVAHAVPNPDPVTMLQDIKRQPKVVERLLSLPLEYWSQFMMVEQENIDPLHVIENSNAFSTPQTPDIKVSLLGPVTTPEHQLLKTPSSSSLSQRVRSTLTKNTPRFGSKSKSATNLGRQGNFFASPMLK

T3 sequence (P49327 whole entry): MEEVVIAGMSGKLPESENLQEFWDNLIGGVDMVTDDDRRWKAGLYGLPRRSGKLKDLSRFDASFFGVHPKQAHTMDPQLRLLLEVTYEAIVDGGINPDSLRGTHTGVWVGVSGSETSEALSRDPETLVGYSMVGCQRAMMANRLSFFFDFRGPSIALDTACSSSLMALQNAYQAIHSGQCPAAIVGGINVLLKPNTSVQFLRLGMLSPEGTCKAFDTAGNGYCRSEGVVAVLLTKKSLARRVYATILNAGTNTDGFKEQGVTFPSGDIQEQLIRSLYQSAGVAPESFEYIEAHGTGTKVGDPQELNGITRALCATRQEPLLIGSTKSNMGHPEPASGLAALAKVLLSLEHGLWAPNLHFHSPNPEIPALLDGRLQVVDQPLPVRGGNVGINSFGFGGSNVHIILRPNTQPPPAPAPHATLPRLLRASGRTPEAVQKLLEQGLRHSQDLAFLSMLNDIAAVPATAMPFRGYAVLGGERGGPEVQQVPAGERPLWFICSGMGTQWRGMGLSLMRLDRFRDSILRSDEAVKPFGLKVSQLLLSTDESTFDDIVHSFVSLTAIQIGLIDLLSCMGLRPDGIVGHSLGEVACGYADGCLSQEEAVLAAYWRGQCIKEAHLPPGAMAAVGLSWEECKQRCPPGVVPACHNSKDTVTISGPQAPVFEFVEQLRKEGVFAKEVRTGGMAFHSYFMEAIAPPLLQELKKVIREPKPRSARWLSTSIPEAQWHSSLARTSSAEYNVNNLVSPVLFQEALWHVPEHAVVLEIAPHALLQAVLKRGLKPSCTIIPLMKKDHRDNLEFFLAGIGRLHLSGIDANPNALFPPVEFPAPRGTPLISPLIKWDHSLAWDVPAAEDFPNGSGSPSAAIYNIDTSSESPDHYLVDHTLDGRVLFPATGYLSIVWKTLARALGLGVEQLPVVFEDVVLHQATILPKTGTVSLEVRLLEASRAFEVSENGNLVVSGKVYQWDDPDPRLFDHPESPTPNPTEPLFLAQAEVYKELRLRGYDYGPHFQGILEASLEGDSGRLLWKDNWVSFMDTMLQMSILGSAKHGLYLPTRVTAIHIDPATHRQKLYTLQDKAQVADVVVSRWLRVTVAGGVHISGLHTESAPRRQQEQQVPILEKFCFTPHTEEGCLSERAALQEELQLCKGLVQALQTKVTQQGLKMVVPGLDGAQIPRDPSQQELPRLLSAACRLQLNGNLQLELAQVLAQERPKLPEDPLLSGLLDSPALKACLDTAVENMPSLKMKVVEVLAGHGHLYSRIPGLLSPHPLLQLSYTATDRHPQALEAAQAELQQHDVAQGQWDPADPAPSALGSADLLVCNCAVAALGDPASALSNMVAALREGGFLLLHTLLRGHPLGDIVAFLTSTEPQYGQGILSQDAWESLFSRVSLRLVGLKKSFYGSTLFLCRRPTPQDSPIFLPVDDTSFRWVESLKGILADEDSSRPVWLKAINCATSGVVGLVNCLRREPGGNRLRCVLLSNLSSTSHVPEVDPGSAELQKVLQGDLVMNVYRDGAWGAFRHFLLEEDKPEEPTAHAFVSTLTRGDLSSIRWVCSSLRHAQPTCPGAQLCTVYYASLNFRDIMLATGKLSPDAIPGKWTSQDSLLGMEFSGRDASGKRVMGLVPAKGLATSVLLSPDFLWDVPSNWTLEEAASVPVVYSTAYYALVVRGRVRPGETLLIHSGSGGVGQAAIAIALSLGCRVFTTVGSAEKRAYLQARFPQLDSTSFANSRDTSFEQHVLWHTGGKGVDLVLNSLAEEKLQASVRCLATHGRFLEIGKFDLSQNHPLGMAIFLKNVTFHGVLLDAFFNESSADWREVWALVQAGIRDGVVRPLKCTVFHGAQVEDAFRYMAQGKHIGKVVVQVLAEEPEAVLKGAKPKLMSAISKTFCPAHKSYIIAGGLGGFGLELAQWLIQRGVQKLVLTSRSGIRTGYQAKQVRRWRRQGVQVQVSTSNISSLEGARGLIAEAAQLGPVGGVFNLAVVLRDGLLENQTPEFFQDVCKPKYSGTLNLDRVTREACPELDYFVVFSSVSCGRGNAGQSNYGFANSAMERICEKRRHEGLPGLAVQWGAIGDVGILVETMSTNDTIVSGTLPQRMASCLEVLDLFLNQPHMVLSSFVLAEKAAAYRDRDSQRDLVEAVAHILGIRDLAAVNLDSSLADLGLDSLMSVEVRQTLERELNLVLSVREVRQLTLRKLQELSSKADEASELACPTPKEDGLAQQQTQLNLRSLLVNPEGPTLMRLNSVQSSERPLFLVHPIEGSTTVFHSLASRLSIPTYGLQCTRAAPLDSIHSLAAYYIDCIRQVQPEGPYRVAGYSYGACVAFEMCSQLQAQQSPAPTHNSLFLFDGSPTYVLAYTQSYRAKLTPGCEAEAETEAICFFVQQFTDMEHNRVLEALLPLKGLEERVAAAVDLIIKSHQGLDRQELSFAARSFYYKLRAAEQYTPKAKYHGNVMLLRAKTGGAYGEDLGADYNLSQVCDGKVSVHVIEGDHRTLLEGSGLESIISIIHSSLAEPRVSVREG
Sequence of Luciferin 4-monooxygenase (P08659 whole entry): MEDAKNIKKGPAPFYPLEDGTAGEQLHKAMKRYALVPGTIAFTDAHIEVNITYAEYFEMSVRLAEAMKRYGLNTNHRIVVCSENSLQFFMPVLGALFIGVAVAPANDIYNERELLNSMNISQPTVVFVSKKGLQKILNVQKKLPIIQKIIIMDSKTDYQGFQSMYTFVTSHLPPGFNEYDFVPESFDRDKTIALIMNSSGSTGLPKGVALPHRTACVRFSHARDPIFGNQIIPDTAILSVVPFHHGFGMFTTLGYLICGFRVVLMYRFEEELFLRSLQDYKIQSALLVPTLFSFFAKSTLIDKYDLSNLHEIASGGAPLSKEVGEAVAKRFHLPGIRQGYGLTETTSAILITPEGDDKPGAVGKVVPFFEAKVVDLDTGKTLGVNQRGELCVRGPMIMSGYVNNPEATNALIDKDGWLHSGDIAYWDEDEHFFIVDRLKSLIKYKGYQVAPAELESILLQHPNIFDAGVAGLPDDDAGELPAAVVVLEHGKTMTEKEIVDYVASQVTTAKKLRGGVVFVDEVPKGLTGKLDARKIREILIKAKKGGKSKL

SMILES: C/C(=N/N=C/c1ccc(N(C)C)cc1)c1ccccc1
EC50 (BJ [5]): > 150 µM (not active)
EC50 [6]: 0.875 µM (active)
EC50 [7]: 1.61 µM (active)
EC50 (BJ [8]): 13.5 µM (active)
EC50 [9]: 17.1 µM (active)
EC50 (BJ [10]): 26.5 µM (active)

SMILES: Cn1c(N/N=C/c2cc3ccccc3nc2Cl)nc2ccccc21
EC50 (BJ [5]): > 150 µM (not active)
EC50 (cells [12]): 7.59 µM (active)
EC50 [6]: 0.687 µM (active)
EC50 [7]: 6.52 µM (active)
EC50 (BJ [8]): 2.58 µM (active)
EC50 [9]: 25.7 µM (active)
EC50 (BJ [10]): 6.15 µM (inconclusive)
EC50 (cells [13]): > 350 µM (not active)

SMILES: COC(=O)c1c(O)[n+]([O-])c2ccc(OC)cc2[n+]1[O-]
EC50 [2]: 14.1 µM (active)
EC50 [14]: > 300 µM (inconclusive)

SMILES: CC(C)(C)c1ccc(/C=N/NC(=S)NC2CCCCC2)cc1
IC50 (Fatty acid synthase [3]): 12.7 µM (active)
IC50 (Fatty acid synthase [4]): 15.4 µM (active)

Continued, values first:

EC50 [1]: > 195 µM (not active)
EC50 [2]: 0.374 µM (inconclusive)
SMILES: Cc1cc(=O)n2c(n1)/C(=N\Nc1ccccc1)C(=O)N2

IC50 (Fatty acid synthase [3]): 11.9 µM (active)
IC50 (Fatty acid synthase [4]): 13.2 µM (active)
SMILES: C[C@H](CO)N1C[C@H](C)[C@@H](CN(C)Cc2ccc(Cl)c(Cl)c2)Oc2c(NS(=O)(=O)c3ccc(F)cc3)cccc2C1=O

AC50 [11]: 12.9 µM (active)
SMILES: O=C1c2cc(O)c(O)cc2OC(c2ccc(O)c(O)c2)C1O (configuration not stated)

EC50 [2]: > 300 µM (not active)
EC50 [14]: > 300 µM (not active)
SMILES: Cc1ccc(-c2nnc(Nc3ccc(CC(N)=O)cc3)c3ccccc23)cc1S(N)(=O)=O

IC50 [15]: 75.8 µM (active)
AC50 [11]: 15.5 µM (active)
SMILES: CCOc1ccccc1N1CCN(C/C=C/c2ccc(N(C)C)cc2)CC1
